Reference: patent US20250188085A1, “COMPOSITIONS AND METHODS FOR INHIBITION OF RAS” (THERAS, INC., priority 2022, published 2025)

Columns and labels:
[1] = test system: pERK in NCI-H358 cells; test: Cell-based pERK HTRF assay; conditions: Homo sapiens, NCI-H358, 0.5 h, 30 min incubation, read-out: pERK in NCI-H358 cell inhibition IC50
Outline: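 Cells seeded at 4×10^4/well in RPMI with 10% FBS, then next day treated for 30 min with a 9-point, 3-fold series from 75 μM top concentration at 0.25% DMSO. Lysates were read for pERK by HTRF (d2/Eu cryptate antibodies) after 4–24 h at room temperature, emission at 615 nm.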

[2] = target: T1, Avi-KRAS G12C (1-169) GppNHp/RAF1 RBD-3×FLAG (52-151) (Homo sapiens, UniProt P01116, G12C); test: Raf1 RBD-KRAS G12C-GppNHp disruption (protein:protein interaction HTRF assay); format: biochemical
T1 construct: Avi-KRAS G12C (1-169) GppNHp/RAF1 RBD-3×FLAG (52-151)
Outline: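 HTRF measuring disruption of 50 nM Avi-KRAS G12C (1-169) loaded with GppNHp binding RAF1 RBD-3×FLAG (52-151), in pH 7.5 Tris buffer with 5 mM MgCl2, 0.1% BSA, 10% DMSO. KRAS preincubated with compound 1 h, then RBD 1 h, then detection reagents 1 h, all at room temperature. Compound titration 30-0.02 μM; activity expressed as percent of DMSO control.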

[3] = target: T2, GppNHp-loaded KRAS4b (amino acids 1-169) G12C/C118S protein (Homo sapiens, UniProt P01116, C118S/G12C); test: Covalent cysteine 12 modification by MALDI-TOF MS, GppNHp-loaded KRAS G12C; format: binding; conditions: 15 minutes reaction time point
T2 construct: KRAS4b (amino acids 1-169) G12C/C118S protein; made in house
Outline: (§1)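 KRAS4b 1-169 G12C/C118S loaded with GDP, GppNHp or GTP was used at 1 μM in 20 mM HEPES, 150 mM NaCl, 1 mM MgCl2, pH 7.3, and incubated with compound (5 mM DMSO stock) at room temperature in the dark. % modification at 15 min is adduct peak height over total protein peak heights by linear-mode MALDI-TOF.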

[4] = target: T3, GTP-loaded KRAS4b (amino acids 1-169) G12C/C118S protein (Homo sapiens, UniProt P01116, C118S/G12C); test: Covalent cysteine 12 modification by MALDI-TOF MS, GTP-loaded KRAS G12C; format: binding; conditions: 15 minutes reaction time point
T3 construct: KRAS4b (amino acids 1-169) G12C/C118S protein; made in house
Outline: as §1

[5] = target: T4, GDP-loaded KRAS4b (amino acids 1-169) G12C/C118S protein (Homo sapiens, UniProt P01116, C118S/G12C); test: Covalent cysteine 12 modification by MALDI-TOF MS, GDP-loaded KRAS G12C; format: binding; conditions: 15 minutes reaction time point
T4 construct: KRAS4b (amino acids 1-169) G12C/C118S protein; made in house
Outline: as §1

| IC50 [1] [nM] | IC50 [2] [nM] | GppNHp-KRAS G12C percent of modification [3] | GTP-KRAS G12C percent of modification [4] | GDP-KRAS G12C percent of modification [5] | Compound |
| --- | --- | --- | --- | --- | --- |
| 100 to 1000 | ≤ 500 | C (10%≤modification <50%) | D (percent of modification <10%) | C (10%≤modification <50%) | C=CC(=O)N1CC[C@@H](Oc2nc(OC[C@@]34CCCN3C[C@H](F)C4)nc3c(F)c(-c4ccc(F)c5sc(N)c(C#N)c45)c(Cl)cc23)[C@@H]1C [Compound 121] |
| > 1000 | > 20000 | D (percent of modification <10%) | D (percent of modification <10%) | C (10%≤modification <50%) | C=CC(=O)N1CC[C@@H](Oc2nc(OC[C@@]34CCCN3C[C@H](F)C4)nc3c(F)c(-c4ccc(F)c5sc(N)c(C#N)c45)ccc23)[C@@H]1COC [Compound 125] |
| 100 to 1000 | 500 to 5000 | D (percent of modification <10%) | D (percent of modification <10%) | A (percent of modification ≥70%) | C=CC(=O)N1CC[C@@H](Oc2nc(OC[C@@]34CCCN3C[C@H](F)C4)nc3c(F)c(-c4ccc(F)c5sc(N)c(C#N)c45)c(Cl)cc23)[C@@H]1COC [Compound 126] |
| 100 to 1000 | ≤ 500 | D (percent of modification <10%) | D (percent of modification <10%) | B (50≤percent of modification <70%) | C=CC(=O)N1CC[C@@H](Oc2nc(OC[C@@]34CCCN3C[C@H](F)C4)nc3c(F)c(-c4ccc(F)c5sc(N)c(C#N)c45)c(C(F)(F)F)cc23)[C@@H]1COC [Compound 127] |
| 100 to 1000 | ≤ 500 | A (percent of modification ≥70%) | C (10%≤modification <50%) | B (50≤percent of modification <70%) | C=CC(=O)N1CC[C@@H](Oc2nc(OC[C@@]34CCCN3C[C@H](F)C4)nc3c(Cl)c(-c4ccc(F)c5sc(N)c(C#N)c45)ncc23)[C@@H]1COC [Compound 129] |

The next lines start with the compound.

| Compound | IC50 [1] [nM] | IC50 [2] [nM] | GppNHp-KRAS G12C percent of modification [3] | GTP-KRAS G12C percent of modification [4] | GDP-KRAS G12C percent of modification [5] |
| --- | --- | --- | --- | --- | --- |
| C=CC(=O)N1CC[C@@H](Oc2nc(OC[C@@]34CCCN3C[C@H](F)C4)nc3cc(-c4ccc(F)c5sc(N)c(C#N)c45)c(C#N)cc23)[C@@H]1C [Compound 120] | 100 to 1000 | 5000 to 20000 | D (percent of modification <10%) | D (percent of modification <10%) | B (50≤percent of modification <70%) |
| C=CC(=O)N1CC[C@@H](Oc2nc(OC[C@@]34CCCN3C[C@H](F)C4)nc3cc(-c4ccc(F)c5sc(N)c(C#N)c45)c(F)cc23)[C@@H]1COC [Compound 122] | > 1000 | > 20000 | D (percent of modification <10%) | D (percent of modification <10%) | C (10%≤modification <50%) |
| C=CC(=O)N1CC[C@@H](Oc2nc(OC[C@@]34CCCN3C[C@H](F)C4)nc3c(F)c(-c4ccc(F)c5sc(N)c(C#N)c45)c(C(F)(F)F)cc23)[C@@H]1C [Compound 123] | ≤ 100 | ≤ 500 | C (10%≤modification <50%) | D (percent of modification <10%) | B (50≤percent of modification <70%) |
| C=CC(=O)N1CC[C@@H](Oc2nc(OC[C@@]34CCCN3C[C@H](F)C4)nc3c(Cl)c(-c4ccc(F)c5sc(N)c(C#N)c45)ncc23)[C@@H]1C [Compound 124] | 100 to 1000 | 500 to 5000 | D (percent of modification <10%) | D (percent of modification <10%) | B (50≤percent of modification <70%) |
| C=CC(=O)N1CC[C@@H](Oc2nc(OC[C@@]34CCCN3C[C@H](F)C4)nc3cc(-c4ccc(F)c5sc(N)c(C#N)c45)c(C#N)cc23)[C@@H]1COC [Compound 128] | > 1000 | > 20000 | D (percent of modification <10%) | D (percent of modification <10%) | C (10%≤modification <50%) |
